ChEMBL document CHEMBL5465560, “Selectivity Literature for EUbOPEN Chemogenomic Library” (2024)

Experiments:
[1] = target: Mitogen-activated protein kinase 7 (Homo sapiens) (UniProt Q13164); test: Selectivity interaction (Kinase panel (Z-LYTE Assay)) EUB0001632a MAPK7; conditions: at 10 µM
[2] = target: T1, Serine/threonine-protein kinase DCLK3 (Homo sapiens) (UniProt Q9C098); test: Selectivity interaction (KinomeScan (DiscoverX)) EUB0000607a DCLK3; conditions: at 10 µM
T1 sequence (whole entry): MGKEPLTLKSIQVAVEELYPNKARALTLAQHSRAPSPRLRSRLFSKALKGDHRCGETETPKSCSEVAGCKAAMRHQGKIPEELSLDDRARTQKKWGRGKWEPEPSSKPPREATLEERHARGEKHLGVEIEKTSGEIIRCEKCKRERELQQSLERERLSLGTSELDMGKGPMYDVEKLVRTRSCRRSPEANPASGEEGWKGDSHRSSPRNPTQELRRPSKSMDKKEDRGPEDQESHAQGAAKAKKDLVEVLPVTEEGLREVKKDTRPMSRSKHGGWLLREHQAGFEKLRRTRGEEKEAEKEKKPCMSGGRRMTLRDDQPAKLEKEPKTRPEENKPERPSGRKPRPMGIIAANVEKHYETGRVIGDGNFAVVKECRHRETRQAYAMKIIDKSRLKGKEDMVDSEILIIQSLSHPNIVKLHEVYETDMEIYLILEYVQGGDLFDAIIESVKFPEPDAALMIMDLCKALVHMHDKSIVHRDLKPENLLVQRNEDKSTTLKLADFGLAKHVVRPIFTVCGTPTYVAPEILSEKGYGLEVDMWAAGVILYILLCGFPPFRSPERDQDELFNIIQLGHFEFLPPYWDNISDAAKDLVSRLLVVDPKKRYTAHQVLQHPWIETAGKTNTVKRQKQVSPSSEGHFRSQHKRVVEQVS

[3] = target: Potassium voltage-gated channel subfamily A member 1 (Homo sapiens) (UniProt Q09470); test: Selectivity interaction (Panel of non-epigenetic targets (kinases, GPCRs, ion channels, and transporters, Eurofins) ) EUB0000271b KCNA1; conditions: at 1 µM
[4] = target: Serine/threonine-protein kinase WNK1 (Homo sapiens) (UniProt Q9H4A3); test: Selectivity interaction (KinomeScan (DiscoverX)) EUB0000695a WNK1; conditions: at 100 nM
[5] = target: Homeodomain-interacting protein kinase 3 (Homo sapiens, UniProt Q9H422); test: Selectivity interaction (KinomeScan (DiscoverX)) EUB0001049a HIPK3; conditions: at 1 µM
[6] = target: Serine/threonine-protein kinase SMG1 (Homo sapiens) (UniProt Q96Q15); test: Selectivity interaction (Kinase panel (KiNativ target engagement assay in Jurkat cells)) EUB0001635a SMG1; type: cell-based; conditions: Selectivity number of off-targets 0.0, Selectivity number of targets 233.0, Source Knowledge https://www.sciencedirect.com/science/article/pii/S2451945619300674?via%3Dihub, at 1 µM
[7] = target: T2, Ephrin type-A receptor 6 (Homo sapiens) (UniProt Q9UF33); test: Selectivity interaction (KinomeScan (DiscoverX)) EUB0000229b EPHA6; conditions: at 10 µM
T2 sequence (whole entry): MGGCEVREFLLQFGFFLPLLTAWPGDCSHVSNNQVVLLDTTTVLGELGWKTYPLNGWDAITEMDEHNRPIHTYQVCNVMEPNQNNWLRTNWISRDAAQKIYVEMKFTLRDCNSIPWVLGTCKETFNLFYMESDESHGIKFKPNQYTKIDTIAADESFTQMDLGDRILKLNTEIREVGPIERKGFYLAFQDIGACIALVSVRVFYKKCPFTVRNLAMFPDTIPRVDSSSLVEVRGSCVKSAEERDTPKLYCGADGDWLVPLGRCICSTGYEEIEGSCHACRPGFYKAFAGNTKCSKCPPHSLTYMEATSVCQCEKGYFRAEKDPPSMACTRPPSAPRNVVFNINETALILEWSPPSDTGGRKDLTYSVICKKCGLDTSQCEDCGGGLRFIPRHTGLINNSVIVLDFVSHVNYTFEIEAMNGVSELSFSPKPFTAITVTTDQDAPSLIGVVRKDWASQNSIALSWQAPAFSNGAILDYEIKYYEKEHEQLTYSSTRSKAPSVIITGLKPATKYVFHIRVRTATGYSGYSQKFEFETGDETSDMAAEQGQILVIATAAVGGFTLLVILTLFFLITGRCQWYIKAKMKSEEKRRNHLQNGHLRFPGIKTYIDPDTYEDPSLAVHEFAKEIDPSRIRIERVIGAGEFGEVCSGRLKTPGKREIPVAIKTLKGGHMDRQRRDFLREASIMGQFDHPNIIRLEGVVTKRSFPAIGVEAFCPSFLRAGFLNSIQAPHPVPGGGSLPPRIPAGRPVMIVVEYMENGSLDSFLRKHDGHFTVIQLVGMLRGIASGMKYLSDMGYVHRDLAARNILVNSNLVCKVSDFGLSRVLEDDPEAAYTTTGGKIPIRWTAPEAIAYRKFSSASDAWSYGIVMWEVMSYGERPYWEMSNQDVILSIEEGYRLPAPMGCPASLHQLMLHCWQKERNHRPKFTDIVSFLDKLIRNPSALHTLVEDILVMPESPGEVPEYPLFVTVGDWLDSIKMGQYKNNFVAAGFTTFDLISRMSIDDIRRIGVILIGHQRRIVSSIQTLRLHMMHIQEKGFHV

[8] = system: Epidermal growth factor receptor (Homo sapiens), P00533 [L858R,T790M]; test: (§1) Selectivity interaction (KinomeScan (DiscoverX)) EUB0000229b EGFR; conditions: at 1 µM
[9] = system: Epidermal growth factor receptor (Homo sapiens), P00533 [UNDEFINED MUTATION]; test: as §1; conditions: at 1 µM
[10] = system: Epidermal growth factor receptor (Homo sapiens), P00533 [G719S]; test: as §1; conditions: at 1 µM
[11] = system: Epidermal growth factor receptor (Homo sapiens), P00533 [T790M]; test: as §1; conditions: at 1 µM
[12] = target: Epidermal growth factor receptor (Homo sapiens, UniProt P00533); test: as §1; conditions: at 10 µM
[13] = system: Epidermal growth factor receptor (Homo sapiens), P00533 [L861Q]; test: as §1; conditions: at 1 µM
[14] = system: Epidermal growth factor receptor (Homo sapiens), P00533 [L858R]; test: as §1; conditions: at 1 µM
[15] = system: Epidermal growth factor receptor (Homo sapiens), P00533 [G719C]; test: as §1; conditions: at 1 µM
[16] = system: Tyrosine-protein kinase ABL1 (Homo sapiens), P00519 [M351T]; test: (§2) Selectivity interaction (KinomeScan (DiscoverX)) EUB0000229b ABL1; conditions: at 1 µM
[17] = system: Tyrosine-protein kinase ABL1 (Homo sapiens), P00519 [Q252H]; test: as §2; conditions: at 1 µM
[18] = system: Tyrosine-protein kinase ABL1 (Homo sapiens), P00519 [E255K]; test: as §2; conditions: at 1 µM
[19] = system: Tyrosine-protein kinase ABL1 (Homo sapiens), P00519 [T315I]; test: as §2; conditions: at 1 µM
[20] = system: Tyrosine-protein kinase ABL1 (Homo sapiens), P00519 [F317L]; test: as §2; conditions: at 1 µM
[21] = system: Tyrosine-protein kinase ABL1 (Homo sapiens), P00519 [F317I]; test: as §2; conditions: at 1 µM
[22] = system: Tyrosine-protein kinase ABL1 (Homo sapiens), P00519 [H396P]; test: as §2; conditions: at 1 µM
[23] = system: Tyrosine-protein kinase ABL1 (Homo sapiens), P00519 [Y253F]; test: as §2; conditions: at 1 µM

Epidermal growth factor receptor (Homo sapiens), P00533 [G719C], sequence (P00533 whole entry G719C): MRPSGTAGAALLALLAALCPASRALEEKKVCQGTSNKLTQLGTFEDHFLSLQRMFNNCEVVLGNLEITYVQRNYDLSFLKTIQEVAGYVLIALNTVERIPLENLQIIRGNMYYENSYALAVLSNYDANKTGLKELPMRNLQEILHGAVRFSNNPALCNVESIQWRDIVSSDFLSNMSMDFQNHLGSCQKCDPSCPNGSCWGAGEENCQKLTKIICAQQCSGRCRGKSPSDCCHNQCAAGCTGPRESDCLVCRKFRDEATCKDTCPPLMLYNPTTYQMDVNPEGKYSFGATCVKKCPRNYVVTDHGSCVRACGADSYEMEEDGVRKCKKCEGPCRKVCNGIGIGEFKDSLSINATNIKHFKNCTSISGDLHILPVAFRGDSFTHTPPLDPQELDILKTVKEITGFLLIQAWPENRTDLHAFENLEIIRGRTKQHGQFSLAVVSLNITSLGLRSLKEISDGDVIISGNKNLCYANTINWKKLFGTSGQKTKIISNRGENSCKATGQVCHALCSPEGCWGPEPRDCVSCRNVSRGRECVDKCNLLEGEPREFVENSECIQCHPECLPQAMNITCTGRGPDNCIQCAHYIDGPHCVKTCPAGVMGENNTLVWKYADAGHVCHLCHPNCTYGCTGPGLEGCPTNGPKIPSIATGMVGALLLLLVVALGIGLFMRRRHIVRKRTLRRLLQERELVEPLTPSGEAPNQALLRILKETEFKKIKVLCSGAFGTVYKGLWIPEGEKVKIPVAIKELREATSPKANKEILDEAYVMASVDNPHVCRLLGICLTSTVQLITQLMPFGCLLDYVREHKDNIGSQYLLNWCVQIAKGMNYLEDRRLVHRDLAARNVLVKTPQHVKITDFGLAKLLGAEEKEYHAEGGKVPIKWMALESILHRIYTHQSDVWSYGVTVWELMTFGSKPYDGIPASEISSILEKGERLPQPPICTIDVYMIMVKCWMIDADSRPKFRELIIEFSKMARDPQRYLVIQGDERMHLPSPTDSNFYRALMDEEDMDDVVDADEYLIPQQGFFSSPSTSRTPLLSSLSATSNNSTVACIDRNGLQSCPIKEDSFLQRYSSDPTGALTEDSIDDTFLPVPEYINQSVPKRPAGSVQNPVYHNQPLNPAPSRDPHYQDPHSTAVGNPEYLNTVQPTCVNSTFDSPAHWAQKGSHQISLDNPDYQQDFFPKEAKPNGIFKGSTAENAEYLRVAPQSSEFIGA
Mitogen-activated protein kinase 7 (Homo sapiens), sequence (Q13164 2-816 limits assumed): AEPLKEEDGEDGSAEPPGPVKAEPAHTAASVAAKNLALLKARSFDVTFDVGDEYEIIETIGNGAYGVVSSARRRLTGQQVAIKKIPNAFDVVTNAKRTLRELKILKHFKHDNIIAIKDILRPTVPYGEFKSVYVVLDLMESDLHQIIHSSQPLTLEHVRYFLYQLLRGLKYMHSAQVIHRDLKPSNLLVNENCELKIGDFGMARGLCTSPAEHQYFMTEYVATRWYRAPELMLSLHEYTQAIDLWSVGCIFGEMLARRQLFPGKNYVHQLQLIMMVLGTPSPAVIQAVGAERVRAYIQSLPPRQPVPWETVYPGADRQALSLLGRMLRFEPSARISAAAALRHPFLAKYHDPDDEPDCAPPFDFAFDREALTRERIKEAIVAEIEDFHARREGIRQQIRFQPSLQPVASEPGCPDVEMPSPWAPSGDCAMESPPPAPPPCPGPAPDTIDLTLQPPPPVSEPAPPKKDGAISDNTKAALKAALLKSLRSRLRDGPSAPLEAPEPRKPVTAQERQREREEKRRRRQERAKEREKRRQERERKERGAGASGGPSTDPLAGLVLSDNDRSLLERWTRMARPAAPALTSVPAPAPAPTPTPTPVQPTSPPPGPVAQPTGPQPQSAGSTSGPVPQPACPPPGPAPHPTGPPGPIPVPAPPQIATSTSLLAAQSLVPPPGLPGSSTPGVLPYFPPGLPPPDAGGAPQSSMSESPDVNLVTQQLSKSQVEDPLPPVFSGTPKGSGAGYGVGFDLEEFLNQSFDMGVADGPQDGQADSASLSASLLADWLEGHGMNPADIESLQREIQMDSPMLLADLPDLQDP
Epidermal growth factor receptor, sequence (P00533 whole entry): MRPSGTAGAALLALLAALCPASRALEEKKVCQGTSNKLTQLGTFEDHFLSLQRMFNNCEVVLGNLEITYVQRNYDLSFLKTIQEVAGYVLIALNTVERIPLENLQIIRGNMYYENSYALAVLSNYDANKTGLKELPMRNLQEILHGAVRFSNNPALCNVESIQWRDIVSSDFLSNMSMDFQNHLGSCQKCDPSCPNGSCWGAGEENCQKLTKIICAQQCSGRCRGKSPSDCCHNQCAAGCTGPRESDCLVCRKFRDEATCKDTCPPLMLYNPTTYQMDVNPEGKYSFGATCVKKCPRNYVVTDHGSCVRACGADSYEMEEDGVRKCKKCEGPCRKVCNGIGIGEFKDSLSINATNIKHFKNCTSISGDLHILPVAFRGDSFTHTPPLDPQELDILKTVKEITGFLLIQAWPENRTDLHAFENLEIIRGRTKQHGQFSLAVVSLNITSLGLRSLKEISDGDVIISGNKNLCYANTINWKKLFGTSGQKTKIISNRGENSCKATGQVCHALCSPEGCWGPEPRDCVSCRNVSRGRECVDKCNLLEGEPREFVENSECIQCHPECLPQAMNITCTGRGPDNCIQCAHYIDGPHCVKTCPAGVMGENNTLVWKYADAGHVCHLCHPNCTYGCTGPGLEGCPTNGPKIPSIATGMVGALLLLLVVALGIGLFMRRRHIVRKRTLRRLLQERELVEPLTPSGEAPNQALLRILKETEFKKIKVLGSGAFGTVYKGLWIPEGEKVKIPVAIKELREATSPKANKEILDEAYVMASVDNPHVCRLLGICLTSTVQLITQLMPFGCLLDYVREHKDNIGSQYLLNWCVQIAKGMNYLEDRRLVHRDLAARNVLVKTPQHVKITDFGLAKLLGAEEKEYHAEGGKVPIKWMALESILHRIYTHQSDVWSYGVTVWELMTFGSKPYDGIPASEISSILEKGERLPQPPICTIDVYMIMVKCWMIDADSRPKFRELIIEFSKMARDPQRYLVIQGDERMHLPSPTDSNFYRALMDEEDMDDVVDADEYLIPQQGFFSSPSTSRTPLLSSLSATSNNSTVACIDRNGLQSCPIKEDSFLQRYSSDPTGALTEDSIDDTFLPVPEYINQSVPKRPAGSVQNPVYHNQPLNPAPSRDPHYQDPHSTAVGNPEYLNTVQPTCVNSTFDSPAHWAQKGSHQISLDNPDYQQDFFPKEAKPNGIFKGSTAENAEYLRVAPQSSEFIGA
Epidermal growth factor receptor (Homo sapiens), P00533 [UNDEFINED MUTATION], sequence (P00533 whole entry, looked up, stated change not applied): as the sequence (P00533 whole entry) above
Potassium voltage-gated channel subfamily A member 1 (Homo sapiens), sequence (Q09470 whole entry): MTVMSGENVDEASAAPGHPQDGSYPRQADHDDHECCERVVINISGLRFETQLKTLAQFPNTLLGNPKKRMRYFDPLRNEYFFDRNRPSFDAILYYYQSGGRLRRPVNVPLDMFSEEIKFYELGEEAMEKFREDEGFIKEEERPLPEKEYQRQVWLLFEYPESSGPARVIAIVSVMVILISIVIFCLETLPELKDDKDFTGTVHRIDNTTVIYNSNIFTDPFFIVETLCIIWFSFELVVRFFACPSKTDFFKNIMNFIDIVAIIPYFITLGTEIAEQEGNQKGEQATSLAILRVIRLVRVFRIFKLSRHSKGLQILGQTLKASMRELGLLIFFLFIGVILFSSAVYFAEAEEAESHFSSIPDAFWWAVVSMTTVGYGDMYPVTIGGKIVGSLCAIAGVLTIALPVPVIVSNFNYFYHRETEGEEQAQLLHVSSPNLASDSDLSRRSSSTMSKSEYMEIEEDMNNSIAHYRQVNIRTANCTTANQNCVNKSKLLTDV

For `Cn1cc(-n2cnc3c(NCc4nc5cc(Cl)c(Cl)cc5[nH]4)nc(N4CCOCC4)nc32)cn1`, the % of control [1] was 2.02%.

In the case of `CNC(=O)Nc1ccc(-c2nc(N3CC4CCC(C3)O4)c3cnn(C4CCC5(CC4)OCCO5)c3n2)cc1`, the % of control [2] is reported as 100%.

`Cc1cc(C)cc([C@@H]2c3cc(C)ccc3NC(=O)CN2C(=O)c2ccc(Br)s2)c1` gave a % of inhibition [3] of -10%.

With `Cc1cc(F)c(C(=O)Nc2cccc(-c3nncn3C(C)C)n2)cc1-n1cnc(C2CC2)c1` the % of control [4] was 100%.

Work on `COc1cc(Nc2nc(C)cc(-c3cnn4nc(OC)ccc34)n2)cc(C(F)(F)F)c1` yielded a % of control [5] of 95%.

Work on `C=CC(=O)Nc1ccc(C(=O)Nc2[nH]nc3c2CN(C(=O)N[C@H](CN(C)C)c2ccccc2)C3(C)C)cc1` yielded a % of engagement [6] of -6.6%.

`COc1cc(N(C)c2ccnc3ccc(C(F)(F)F)cc23)cc(OC)c1OC` was tested, and the % binding [7] was 97%, the % binding [8] was 86% and the % binding [9] was 84%. It also gave a % binding [10] of 92%, a % binding [11] of 100% and a % binding [12] of 96%. For the same compound, the % binding [13] was 97%, the % binding [14] was 99% and the % binding [15] was 92%. For the same compound, the % binding [16] was 92%, the % binding [17] was 44% and the % binding [18] was 90%. For the same compound, the % binding [19] was 81%, the % binding [20] was 83% and the % binding [21] was 93%. For the same compound, the % binding [22] was 41% and the % binding [23] was 69%.
